# Source: patent US20230263757A1, “DISINFECTING WIPE KIT FOR CENTRAL VENOUS ACCESS DEVICES” (SterileCare Inc., priority 2022, published 2023)
# Counter-ions that a name gives are not always drawn. Like-named read-outs stand apart in the source and are kept apart here.
# How the values were obtained:
# [1] = system: Staphylococcus aureus ON89; assay: FBEC index, checkerboard on biofilms; format: cell-based; settings: for biofilm eradication concentration in combination (FBEC): EDTA + ethanol
# Protocol: (§3) In step (4), microtiter plates are incubated at 37° C. for 24 h. then (6), after incubation, the bacterial and fungal cells were dislodged from the pegs into the recovery medium described above.
# (§4) Three 10-μL aliquots, for a total of 30 μL from each well of recovery medium, were spotted on MH agar plates and incubated for 24 h at 37° C. […] The FBEC determination is a modification of the FICI.
# C. albicans ON47 [2] = assay: MIC, micro broth dilution; format: cell-based, Candida albicans; settings: alone
# Protocol: (§1) An assay was made using a minimum inhibitory concentration (MIC) and minimum bactericidal concentration (MBC) and minimum fungicidal concentration (MFC) determination. The MIC was determined by the micro broth dilution method in 96-well plates. Serial two-fold dilutions of tetrasodium EDTA (from 2% to 0.015%), ethanol (from 50% to 0.1%) and chlorhexidine HCl (from 100 μg/mL to 0.025 μg/mL) were prepared in MH broth with a final volume of 90 μL per well. A 10 μL containing 1×10^5 bacterial cells or 2×10^3 fungal cells were added to each well. The inoculated plates were covered with a lid, sealed with Parafilm, and incubated for 24 h at 37° C. with slight rocking on a tilting platform shaker. After incubation, the optical density at 600 nm (OD 600) of the cultures in each well was measured using an xMark™ Microplate Absorbance Spectrophotometer (Bio-Rad). […] MBCs and MFCs were determined by transferring 100 μL from each well with no apparent growth onto appropriate agar plates, followed by incubation for 24 h at 37° C.
# Escherichia coli SK2 = assay: FBEC index, checkerboard on biofilms; format: cell-based; settings: for biofilm eradication concentration in combination (FBEC): EDTA + ethanol
# Protocol: as §3, §4
# C. albicans ON47 [3] = assay: FBEC index, checkerboard on biofilms; format: cell-based, Candida albicans; settings: for biofilm eradication concentration in combination (FBEC): EDTA + ethanol
# Protocol: as §3, §4
# E. coli SK2 = assay: Checkerboard, FMCI; format: cell-based, Escherichia coli; settings: for microbicidal concentration in combination: EDTA + ethanol
# Protocol: as §1
# (§2) A fourth composition and solution included tetrasodium EDTA with ethanol or chlorhexidine HCl. This fourth composition and solution were created using checkerboard titration methods using micro broth dilution in 96-well microtiter plates. The concentrations of antimicrobials used were based on previously determined MIC values. Briefly, 200 μL, of two-fold dilutions of tetrasodium EDTA and ethanol or chlorhexidine HCl were prepared in MH or MH II broth with standardized cell suspension. […] Microtiter plates were incubated at 37° C. for 24 h, and the results were analyzed. Each test was performed in duplicate and included a growth control without adding any antimicrobials.
# [4] = system: 48-h-old biofilms of all of the test organisms; assay: Rapid biofilm eradication, 2-h exposure; format: cell-based; settings: two h of exposure; preformed biofilms
# Protocol: Determining rapid biofilm eradication by tetrasodium EDTA, ethanol, and chlorhexidine HCl alone and in combination was performed. After biofilm formation, control pegs (n=6) were removed and analyzed to determine the starting biofilm cell numbers via the drop dilution method. The 48-h old biofilms on the pegs were exposed to different concentrations of test antimicrobials, dissolved in an appropriate growth medium, for two h to evaluate their efficacy alone and in combination. Antimicrobial solutions tested against each organism included each agent alone at the MBEC, double combinations at the FBEC, and triple combinations ranging from 5 to 20% ethanol, 2.5-5 μg/mL chlorhexidine HCl and 1-3% tetrasodium EDTA. Following treatment, pegs were washed twice with sterile PBS, and the biofilm cells were dislodged into recovery medium and enumerated as described above.
# The method for rapid biofilm eradication ability of test antimicrobials alone and in combination against 48-h-old biofilms within two h exposure time included (1) choosing different concentrations of test antimicrobials to assess their potency in eradicating preformed biofilms of study organisms within two h. Then (2) the quantitative recovery from biofilms following exposure to the antimicrobial solutions for bacterial strains (FIGS. 9A-9B) and fungal strains (FIG. 5) was evaluated.
# S. epidermidis SK9 = assay: Checkerboard, FMCI; format: cell-based, Staphylococcus epidermidis; settings: for microbicidal concentration in combination: EDTA + ethanol
# Protocol: as §1, §2
# MRSA ON184 = assay: MBC/MFC determination; format: cell-based, S. aureus; settings: alone
# Protocol: as §1
# [5] = system: Pseudomonas aeruginosa SK1; assay: MBC/MFC determination; format: cell-based; settings: alone
# Protocol: as §1
# Candida albicans SK4b [6] = assay: MBC/MFC determination; format: cell-based; settings: alone
# Protocol: as §1
# Proteus mirabilis ON153 [7] = assay: MBC/MFC determination; format: cell-based; settings: alone
# Protocol: as §1
# [8] = system: Staphylococcus aureus ON89; assay: MBC/MFC determination; format: cell-based; settings: alone
# Protocol: as §1
# [9] = system: Stenotrophomonas maltophilia ON17; assay: MBC/MFC determination; format: cell-based; settings: alone
# Protocol: as §1
# [10] = system: Staphylococcus epidermidis ON170; assay: MBC/MFC determination; format: cell-based; settings: alone
# Protocol: as §1
# Serratia marcescens SK2 [11] = assay: MBC/MFC determination; format: cell-based; settings: alone
# Protocol: as §1
# Escherichia coli ON29 [12] = assay: MBC/MFC determination; format: cell-based; settings: alone
# Protocol: as §1
# [13] = system: Pseudomonas aeruginosa SK1; assay: Checkerboard titration, FICI; format: cell-based; settings: for concentration in combination: EDTA + ethanol
# Protocol: as §2
# Candida albicans SK4b [14] = assay: Checkerboard titration, FICI; format: cell-based; settings: for concentration in combination: EDTA + ethanol
# Protocol: as §2
# Proteus mirabilis ON153 [15] = assay: Checkerboard titration, FICI; format: cell-based; settings: for concentration in combination: EDTA + ethanol
# Protocol: as §2
# [16] = system: Staphylococcus aureus ON89; assay: Checkerboard titration, FICI; format: cell-based; settings: for concentration in combination: EDTA + ethanol
# Protocol: as §2
# [17] = system: Stenotrophomonas maltophilia ON17; assay: Checkerboard titration, FICI; format: cell-based; settings: for concentration in combination: EDTA + ethanol
# Protocol: as §2
# [18] = system: Staphylococcus epidermidis ON170; assay: Checkerboard titration, FICI; format: cell-based; settings: for concentration in combination: EDTA + ethanol
# Protocol: as §2
# Serratia marcescens SK2 [19] = assay: Checkerboard titration, FICI; format: cell-based; settings: for concentration in combination: EDTA + ethanol
# Protocol: as §2
# Escherichia coli ON29 [20] = assay: Checkerboard titration, FICI; format: cell-based; settings: for concentration in combination: EDTA + ethanol
# Protocol: as §2
SMILES,biofilm eradication at the MBEC alone [4],MBC/MFC (MRSA ON184),MBC/MFC [5],MBC/MFC (Candida albicans SK4b [6]),MBC/MFC (Proteus mirabilis ON153 [7]),MBC/MFC [8],MBC/MFC [9],MBC/MFC [10],MBC/MFC (Serratia marcescens SK2 [11]),MBC/MFC (Escherichia coli ON29 [12]),biofilm eradication concentration in combination (FBEC) [1],MIC (C. albicans ON47 [2]),biofilm eradication concentration in combination (FBEC) (Escherichia coli SK2),biofilm eradication concentration in combination (FBEC) (C. albicans ON47 [3]),microbicidal concentration in combination (E. coli SK2),microbicidal concentration in combination (S. epidermidis SK9),concentration in combination [13],concentration in combination (Candida albicans SK4b [14]),concentration in combination (Proteus mirabilis ON153 [15]),concentration in combination [16],also measured
"[H]/N=C(\N/C(=N/[H])NCCCCCCNC(=N)NC(=N)Nc1ccc(Cl)cc1)Nc1ccc(Cl)cc1 [Chlorhexidine HCl, 1,6-bis(4′-chlorophenylbiguanide) hexane]",failed to eradicate,1.6 µg/mL,3.125 µg/mL,3.125 µg/mL,50 µg/mL,0.8 µg/mL,3.125 µg/mL,0.8 µg/mL,25 µg/mL,0.8 µg/mL,,,,,,,,,,,"Chlorhexidine HCl biofilm eradication concentration in combination (FBEC) ([1]; EDTA + chlorhexidine HCl): 3.125 µg/mL; MIC (C. albicans ON47 [2]; Candida albicans, read-out: MIC): 1.6 µg/mL; Chlorhexidine HCl biofilm eradication concentration in combination (FBEC) (Escherichia coli SK2; EDTA + chlorhexidine HCl): 3.125 µg/mL; Chlorhexidine HCl biofilm eradication concentration in combination (FBEC) (C. albicans ON47 [3]; EDTA + chlorhexidine HCl): 6.25 µg/mL; Chlorhexidine HCl microbicidal concentration in combination (E. coli SK2; EDTA + chlorhexidine HCl): 0.2 µg/mL; Chlorhexidine HCl microbicidal concentration in combination (S. epidermidis SK9; EDTA + chlorhexidine HCl): 0.4 µg/mL; Chlorhexidine HCl concentration in combination ([13]; EDTA + chlorhexidine HCl): 0.8 µg/mL; Chlorhexidine HCl concentration in combination (Candida albicans SK4b [14]; EDTA + chlorhexidine HCl): 0.8 µg/mL; Chlorhexidine HCl concentration in combination (Proteus mirabilis ON153 [15]; EDTA + chlorhexidine HCl): 0.8 µg/mL; Chlorhexidine HCl concentration in combination ([16]; EDTA + chlorhexidine HCl): 0.1 µg/mL; Chlorhexidine HCl concentration in combination ([17]; EDTA + chlorhexidine HCl): 0.2 µg/mL; Chlorhexidine HCl concentration in combination ([18]; EDTA + chlorhexidine HCl): 0.05 µg/mL; Chlorhexidine HCl concentration in combination (Serratia marcescens SK2 [19]; EDTA + chlorhexidine HCl): 1.5 µg/mL; Chlorhexidine HCl concentration in combination (Escherichia coli ON29 [20]; EDTA + chlorhexidine HCl): 0.2 µg/mL"
"O=C([O-])CN(CCN(CC(=O)[O-])CC(=O)[O-])CC(=O)[O-].[Na+].[Na+].[Na+].[Na+] [EDTA, tetrasodium EDTA]",failed to eradicate,2 % w/v,1 % w/v,1 % w/v,2 % w/v,1 % w/v,1 % w/v,0.5 % w/v,2 % w/v,1 % w/v,0.063 % w/v,1 % w/v,0.125 % w/v,0.125 % w/v,0.25 % w/v,0.031 % w/v,0.031 % w/v,0.25 % w/v,0.5 % w/v,0.015 % w/v,EDTA biofilm eradication concentration in combination (FBEC) ([1]; EDTA + chlorhexidine HCl): 0.125 % w/v; EDTA biofilm eradication concentration in combination (FBEC) (Escherichia coli SK2; EDTA + chlorhexidine HCl): 0.031 % w/v; EDTA biofilm eradication concentration in combination (FBEC) (C. albicans ON47 [3]; EDTA + chlorhexidine HCl): 0.031 % w/v; EDTA microbicidal concentration in combination (E. coli SK2; EDTA + chlorhexidine HCl): 0.015 % w/v; EDTA microbicidal concentration in combination (S. epidermidis SK9; EDTA + chlorhexidine HCl): 0.008 % w/v; EDTA concentration in combination ([13]; EDTA + chlorhexidine HCl): 0.5 % w/v; EDTA concentration in combination (Candida albicans SK4b [14]; EDTA + chlorhexidine HCl): 0.063 % w/v; EDTA concentration in combination (Proteus mirabilis ON153 [15]; EDTA + chlorhexidine HCl): 0.063 % w/v; EDTA concentration in combination ([16]; EDTA + chlorhexidine HCl): 0.008 % w/v; EDTA concentration in combination ([17]; EDTA + chlorhexidine HCl): 0.015 % w/v; concentration in combination [17]: 0.031 % w/v; EDTA concentration in combination ([18]; EDTA + chlorhexidine HCl): 0.063 % w/v; concentration in combination [18]: 0.015 % w/v; EDTA concentration in combination (Serratia marcescens SK2 [19]; EDTA + chlorhexidine HCl): 0.063 % w/v; concentration in combination (Serratia marcescens SK2 [19]): 0.5 % w/v; EDTA concentration in combination (Escherichia coli ON29 [20]; EDTA + chlorhexidine HCl): 0.008 % w/v; concentration in combination (Escherichia coli ON29 [20]): 0.25 % w/v
"CCO [Ethanol, ethanol]",failed to eradicate,25 % w/v,12.5 % w/v,6.25 % w/v,12.5 % w/v,25 % w/v,6.25 % w/v,6.25 % w/v,12.5 % w/v,25 % w/v,0.8 % w/v,6.25 % w/v,1.6 % w/v,1.6 % w/v,6.25 % w/v,3.125 % w/v,3.125 % w/v,1.6 % w/v,1.6 % w/v,0.4 % w/v,concentration in combination [17]: 0.4 % w/v; concentration in combination [18]: 0.4 % w/v; concentration in combination (Serratia marcescens SK2 [19]): 3.125 % w/v; concentration in combination (Escherichia coli ON29 [20]): 3.125 % w/v
